Where a SMILES comes first, the peptide text is derived from it. The star is where a group is joined. Cbz = O=C(OCc1ccccc1)*; CH2F = FC*
Experiments:
iPS cell aggregates [1] = experiment: Cell proliferation of post-thaw culture from 24 to 48 h; format: cell-based, human; settings: 1: no net change in total live cell count in culture
Experimental: (§1) Different forms of cellular damage were identified. Low-temperature spectroscopy was conducted as described earlier to characterize the formation of intracellular ice at −50° C. Both pre-freeze and post-thaw, cells were stained for ROS and free radicals using H2DCFDA (ROS Detection Assay Kit, BioVision) at 37° C. for 45 min to characterize oxidative stress by immunofluorescence and microplate assay. Thawed cells were also stained for caspase enzyme activity using FAM-FLICA (from ImmunoChemistry Technologies, LLC in Bloomington, Minn.) to detect apoptosis. Size of cell aggregates post-thaw was observed visually. Post-thaw cell recovery, reattachment and proliferation were measured as described earlier. Cells cryopreserved using 10% DMSO in PBS++ was used as a control. Brightfield and fluorescent images were acquired using a Carl Zeiss Axioskop 50 with a 10× air objective (NA 0.30, Plan-Neofluar, Carl Zeiss) or a 20× air objective (NA 0.50, Plan-Neofluar, Carl Zeiss) and a Spot Insight Firewire 2 Camera. Microplate assay was quantified using a Synergy HT microplate reader (BioTek).
Different types of additives were tested. P188 5% w/v was added to both the basal solution and the 2× cryopreservation solution to stabilize cell membrane. 2× NEAA was added pre-freeze to the 2× cryopreservation solution to conserve cellular energy. The following molecules were used to target general or specific apoptosis pathways and added at the given working concentration either pre-freeze or post-thaw: 10 μM rho kinase inhibitor (or ROCK inhibitor, Y-27632, […] Technologies), 20 μM pan caspase inhibitor (Z-VAD-FMK, from ApexBio Technology LLC in Houston, Tex.), 1 μg/ml Fas ligand inhibitor (Recombinant Human Fas/TNFRSF6-Fc Chimera from BioLegend in San Diego, Calif.), 100 ng/ml each of TNF-related apoptosis-inducing ligand (TRAIL) inhibitors targeting TRAIL receptor 1 (Recombinant Human TNFRSF10A-Fc Chimera, BioLegend), TRAIL receptor 2 (Recombinant Human TNFRSF10B-Fc Chimera, BioLegend), and TRAIL receptor 4 (Recombinant Human TNFRSF10D-Fc Chimera, BioLegend) respectively.

iPS cell aggregates [2] = experiment: Post-thaw cell reattachment (calcein AM, 24 h post-thaw) after controlled-rate freezing, development of buffer and additives; format: cell-based, human; settings: 100%: same as DMSO control; for Post-thaw reattachment rate of cell aggregates buffered in HBSS: HBSS buffer; for Post-thaw reattachment rate of cell aggregates buffered in PBS++: PBS++ buffer
Experimental: Cells were dissociated using ReLeSR™ and harvested as aggregates without centrifugation in the basal solution at cell concentration of ˜ 3×10^6/ml. Suspension of cell aggregates was loaded into cryovials (Nunc CryoTube, ThermoFisher Scientific) for 0.5 ml/vial. 2× cryopreservation solution was introduced to the cells dropwise for 0.5 ml/vial. Cells were then incubated at room temperature for exactly 30 min before freezing.
Cryovials of cells were frozen using a controlled-rate freezer (Kryo 10 Series III from Planer PLC in Middlesex, UK) following the steps listed below using a cooling rate, B, of 1° C./min and a seeding (or ice nucleation) temperature, TNUC, of −4° C.: • 1. Starting temperature 20° C. • 2. −10° C./min to 0° C. • 3. Hold at 0° C. for 10 min to equilibrate temperature inside and outside cryovials • 4. −1° C./min to −4° C. • 5. Hold at −4° C. for 15 min • 6. Induce ice nucleation when cryovial internal temperature reaches −4° C. towards the end of step 5 • 7. −1° C./min to −60° C. • 8. −10° C./min to −100° C.
Frozen cryovials were thawed in a 37° C. water bath. The cryovial was submerged below the lid and agitated for 2.5 min.
E8 media, either with or without apoptosis inhibitors, was added to the thawed suspension of cell aggregates using a flow rate of ˜ 1 ml/min. Dilution factor of 2 was used, meaning each cryovial of cells was used to produce 1 well of a 6-well plate of post-thaw cell culture. Diluted cells were seeded onto a freshly coated culture vessel and placed in 5% CO2 at 37° C. incubator undisturbed for 24 h.
Ability of cryopreserved cells to re-establish culture after thawing was assessed based on a metric of post-thaw cell reattachment. Thawed cells were plated at a specified split ratio. After 24 h, post-thaw culture was washed and stained for live cells with esterase activity using cell permeant dye calcein AM (ThermoFisher Scientific). Live cells in each sample were quantified using a Synergy HT microplate reader (BioTek) in scan mode based on mean fluorescence intensity. Fluorescence measurement was normalized to controls, which were either fresh cells passaged with the same cell density or cells cryopreserved with the same pre-freeze cell concentration using a DMSO-based control formulation, to determine the value of post-thaw cell reattachment for each sample in arbitrary unit.
Controlled-rate freezing protocol remained constant with a cooling rate of 1° C./min and an ice nucleation temperature of −4° C.
as §1
Different types of additives were tested. P188 5% w/v was added to both the basal solution and the 2× cryopreservation solution to stabilize cell membrane. 2× NEAA was added pre-freeze to the 2× cryopreservation solution to conserve cellular energy. […]

iPS cell aggregates [3] = experiment: Screening of osmolytes for wash-free cryopreservation (cytotoxicity limits by cell reattachment); settings: 300 mM, 30 min, in HBSS at room temperature; observed 24 hours later
Experimental: Different types of sugars (disaccharides) and sugar alcohols (all BioUltra or PharmaGrade, Sigma-Aldrich) were individually tested for cytotoxicity limits based on its effect on cell reattachment. In consideration for pre-freeze cell processing, each molecule of a given concentration among 300 mM, 150 mM, and 75 mM was used to incubate cell aggregates suspended in HBSS at room temperature for 30 minutes or 1 hour. Then, in consideration of wash-free thawing at minimum dilution ratio of 2, each sample of cell aggregates were mixed at 1:1 volume ratio with E8 media and plated on vitronectin-coated culture vessel. 24 hours later, cell reattachment was observed qualitatively under a Nikon TMS inverted phase contrast microscope. Disaccharides included sucrose, trehalose, maltose, and lactose.

Compound | Cell proliferation of culture cryopreserved in HBSS from 24 to 48 h post-thaw (iPS cell aggregates [1]; inhibitors added post-thaw) | Post-thaw reattachment rate of cell aggregates buffered in HBSS (iPS cell aggregates [2]; inhibitor added post-thaw) [%] | Post-thaw reattachment rate of cell aggregates buffered in PBS++ (iPS cell aggregates [2]; inhibitor added post-thaw) [%] | Post-thaw reattachment rate of cell aggregates buffered in PBS++ (iPS cell aggregates [2]; inhibitor added pre-freeze) [%] | Cell proliferation of culture cryopreserved in HBSS from 24 to 48 h post-thaw (iPS cell aggregates [1]; inhibitors added pre-freeze) | Post-thaw reattachment rate of cell aggregates buffered in HBSS (iPS cell aggregates [2]; inhibitor added pre-freeze) [%] | Conditions and observation: cell reattachment after incubation (iPS cell aggregates [3])
COC(=O)C[C@H](NC(=O)[C@H](C)NC(=O)[C@@H](NC(=O)OCc1ccccc1)C(C)C)C(=O)CF [Pan caspase, Z-VAD-FMK] (Cbz-Val-Ala-Asp(OMe)-CH2F) | 3.312 | 100 | 30 | 15 |  |  | 
Fas ligand | 1.749 | 106 | 62 | 45 | 1.713 | 76 | 
ethylene glycol |  |  |  |  |  |  | many colonies, normal morphology
C[C@@H](N)[C@H]1CC[C@H](C(=O)Nc2ccncc2)CC1 [Rho kinase, Y-27632] |  |  | 11 | 109 | 0.967 | 104 | 
